Data on four molecules can be found in paper PMC9687610, “Adenosine-Mimicking Derivatives of 3-Aminopyrazine-2-Carboxamide: Towards Inhibitors of Prolyl-tRNA Synthetase with Antimycobacterial Activity” (Biomolecules, 2022).

≈ marks a conversion by molar mass, not a printed value.

The MIC is the least concentration at which growth counts as inhibited. What is called melting point is the temperature of the solid-liquid transition.

Data set [1] deals with Mycobacterium tuberculosis H37Ra ITM-M006710 (ATCC 9431). In words: Microplate Alamar Blue Assay (MABA), Mtb H37Ra. The note with it: Mycobacterium tuberculosis, 120 h, pH 6.6, MABA, Middlebrook 7H9 broth pH 6.6, resazurin after 120 h; read-out: Mtb H37Ra MIC. It counts as cell-based. (The colour change of resazurin is a common sign of viable cells or microbes.)
The subject of data set [2] is Mycobacterium smegmatis DSM 43465 (ATCC 607). Description: Microplate Alamar Blue Assay (MABA), M. smegmatis. It counts as cell-based. The note with it: Mycolicibacterium smegmatis; MABA, resazurin after 48 h; read-out: M. smegmatis MIC.
The subject of data set [3] is M. aurum DSM 43999 (ATCC 23366). In words: Microplate Alamar Blue Assay (MABA), M. aurum. It counts as cell-based. The note with it: Mycolicibacterium aurum; MABA, resazurin after 72 h; read-out: M. aurum MIC.
Data set [4] has as its system Staphylococcus aureus subsp. aureus CCM 4223 (ATCC 29213). Description: Antibacterial microdilution broth (EUCAST), SA. The class given is cell-based. The note with it: Staphylococcus aureus; read after 24 h; read-out: SA MIC. For orientation: Dilution methods test growth across graded concentrations, often in twofold steps.
Data set [5] relates to Staphylococcus aureus subsp. aureus methicillin-resistant (MRSA) CCM 4750 (ATCC 43300). Description: Antibacterial microdilution broth (EUCAST), MRSA. The following applies: Staphylococcus aureus; read after 24 h; read-out: MRSA MIC. It counts as cell-based.
Data set [6] deals with Staphylococcus epidermidis CCM 4418 (ATCC 12228). In words: Antibacterial microdilution broth (EUCAST), SE. The class given is cell-based. The following applies: read after 24 h, read-out: SE MIC.
Data set [7] has as its system Enterococcus faecalis CCM 4224 (ATCC 29212). In words: Antibacterial microdilution broth (EUCAST), EF. It counts as cell-based. The following applies: Enterococcus faecalis; read after 24 h; read-out: EF MIC.
For data set [8], the system named is Escherichia coli CCM 3954 (ATCC 25922). In words: Antibacterial microdilution broth (EUCAST), EC. The class given is cell-based. The note with it: Escherichia coli; read after 24 h; read-out: EC MIC.
For data set [9], the system named is Acinetobacter baumannii DSM 30007 (ATCC 19606). In words: Antibacterial microdilution broth (EUCAST), ACI. It counts as cell-based. The following applies: Acinetobacter baumannii; read after 24 h; read-out: ACI MIC.
In data set [10] the test system is Pseudomonas aeruginosa CCM 3955 (ATCC 27853). In words: Antibacterial microdilution broth (EUCAST), PA. It counts as cell-based. The note with it: Pseudomonas aeruginosa; read after 24 h; read-out: PA MIC.
Data set [11] relates to Candida albicans CCM 8320 (ATCC 24433). In words: Antifungal microdilution broth (EUCAST), CA. The following applies: Candida albicans; read after 24 h; read-out: CA MIC. It counts as cell-based.
Data set [12] relates to Candida krusei CCM 8271 (ATCC 6258). In words: Antifungal microdilution broth (EUCAST), CK. It counts as cell-based. The note with it: Pichia kudriavzevii; read after 24 h; read-out: CK MIC.
Data set [13] deals with Candida parapsilosis CCM 8260 (ATCC 22019). Description: Antifungal microdilution broth (EUCAST), CP. The following applies: Lodderomyces parapsilosis; read after 24 h; read-out: CP MIC. The class given is cell-based.
The subject of data set [14] is Candida tropicalis CCM 8264 (ATCC 750). Description: Antifungal microdilution broth (EUCAST), CT. The class given is cell-based. The note with it: Candida tropicalis; read after 24 h; read-out: CT MIC.
Data set [15] concerns Aspergillus fumigatus ATCC 204305. In words: Antifungal microdilution broth (EUCAST), AF. The note with it: Aspergillus fumigatus, ATCC204305; read after 24 h; read-out: AF MIC. The class given is cell-based.
For data set [16], the system named is Aspergillus flavus CCM 8363. In words: Antifungal microdilution broth (EUCAST), AFla. It counts as cell-based. The note with it: Aspergillus flavus, CCM8363; read after 24 h; read-out: AFla MIC.
Data set [17] relates to Lichtheimia corymbifera CCM 8077. Description: Antifungal microdilution broth (EUCAST), LC. The class given is cell-based. The note with it: Lichtheimia corymbifera, CCM8077; read after 24 h; read-out: LC MIC.
For data set [18], the system named is Trichophyton interdigitale CCM 8377 (ATCC 9533). Description: Antifungal microdilution broth (EUCAST), TI. It counts as cell-based. The following applies: Trichophyton interdigitale, 72 h, read-out: TI MIC.
In data set [19] the test system is Klebsiella pneumoniae CCM 4415 (ATCC 10031). In words: Antibacterial microdilution broth (EUCAST), KP. The note with it: read after 24 h.

`COC(=O)c1nccnc1NC(=O)c1cccc(Cl)c1` [Compound 14e]: the melting point fell in the range of 146.3 to 147.1 °C. Moreover, the MIC in data set [1] was 250 µg/mL (≈ 857 µM). Also, the MIC in [2] was found to be 125 µg/mL (≈ 429 µM). Besides, the MIC in data set [3] worked out at 250 µg/mL (≈ 857 µM). The MIC in [4] is above 500 µM. Further, the MIC in data set [5] was above 500 µM. Also, in data set [6], the MIC is above 500 µM. Further, the MIC in data set [7] is above 500 µM. Besides, the MIC in data set [8] was above 500 µM. In addition, in data set [9], the MIC was above 500 µM. Moreover, in data set [10], the MIC was above 500 µM. For the same molecule, in [11], the MIC was above 500 µM. Further, in [12], the MIC is above 500 µM. Further, in [13], the MIC was above 500 µM. In [14], the minimum inhibitory concentration (MIC) is above 500 µM. The MIC in data set [15] is above 500 µM. Further, in data set [16], the minimal inhibitory concentration (MIC) was above 500 µM. The MIC in data set [17] is above 500 µM. For the same molecule, the MIC in data set [18] was above 500 µM. The “KP MIC” value in data set [19] is above 500 µM.
On to `COC(=O)c1nccnc1NC(=O)c1cccc(Br)c1` [Compound 17e], for which the melting point lay in the range of 123.3 to 125.2 °C. Moreover, in [1], the MIC is at least 500 µg/mL. For the same molecule, the MIC in data set [2] is at least 500 µg/mL. Further, the MIC in data set [3] was at least 500 µg/mL. Besides, the MIC in data set [4] was above 500 µM. Besides, the MIC in data set [5] is above 500 µM. Further, in [6], the MIC was above 500 µM. In addition, the MIC in [7] was above 500 µM. Further, the MIC in [8] is above 500 µM. Also, the MIC in data set [9] was above 500 µM. In addition, in data set [10], the MIC is above 500 µM. Besides, the MIC in data set [11] is above 500 µM. In data set [12], the MIC is above 500 µM. In addition, the MIC in [13] was above 500 µM. Moreover, in data set [14], the MIC is above 500 µM. The MIC in data set [15] was above 500 µM. The MIC in data set [16] is above 500 µM. Also, the MIC in [17] was above 500 µM. In addition, the MIC in data set [18] was above 500 µM. In data set [19], the “KP MIC” value was above 500 µM.
`COC(=O)c1nccnc1NC(=O)c1ccc(OC)cc1` [Compound 9e]: the melting point lay in the range of 144.5 to 145 °C. In addition, in data set [1], the MIC is at least 500 µg/mL. In addition, in data set [2], the MIC was at least 500 µg/mL. Also, in data set [3], the minimum inhibitory concentration (MIC) was at least 500 µg/mL. The MIC in data set [4] is above 500 µM. Besides, the MIC in data set [5] was above 500 µM. Also, in data set [6], the MIC was above 500 µM. In addition, the MIC in [7] was above 500 µM. Moreover, in [8], the MIC is above 500 µM. Besides, the MIC in [9] was above 500 µM. Further, the MIC in [10] was above 500 µM. Further, the MIC in data set [11] is above 500 µM. Moreover, in data set [12], the MIC is above 500 µM. In addition, the MIC in [13] was above 500 µM. The MIC in [14] is above 500 µM. For the same molecule, in data set [15], the MIC was above 500 µM. In addition, in [16], the MIC is above 500 µM. Further, the minimal inhibitory concentration (MIC) in data set [17] is above 500 µM. Further, the MIC in data set [18] was above 500 µM. In [19], the “KP MIC” value is on record as above 500 µM.
For the molecule `COC(=O)c1nccnc1NC(=O)c1ccc(C)cc1` [Compound 4e], the melting point lay in the range of 158.9 to 161.2 °C. Moreover, the MIC in data set [1] amounted to 250 µg/mL (≈ 922 µM). Further, in data set [2], the MIC is 62.5 µg/mL (≈ 230 µM). In data set [3], the MIC came to 250 µg/mL (≈ 922 µM). The MIC in data set [4] is above 500 µM. In data set [5], the MIC is above 500 µM. Moreover, the MIC in data set [6] was above 500 µM. Further, in data set [7], the MIC was above 500 µM. For the same molecule, the MIC in data set [8] is above 500 µM. Also, in data set [9], the MIC was above 500 µM. Further, the minimum inhibitory concentration (MIC) in data set [10] is above 500 µM. Further, the MIC in data set [11] was above 500 µM. In addition, the MIC in [12] is above 500 µM. In [13], the MIC is above 500 µM. The MIC in data set [14] was above 500 µM. Besides, the MIC in data set [15] was above 500 µM. Besides, the MIC in data set [16] is above 500 µM. Further, the minimum inhibitory concentration (MIC) in [17] is above 500 µM. Further, the MIC in data set [18] was above 500 µM. Moreover, in [19], the “KP MIC” value is listed as above 500 µM.
